Measured values: patent US6455506B1, “Lyxofuranosyl benzimidazoles as antiviral agents” (SmithKline Beecham Corporation, priority 1997, dated 2002)
Read-outs that look alike come from different tables or passages of the source.

How the values were obtained:
Hepatitis B Virus (HBV) = experiment: Activity against Hepatitis B Virus (Jansen et al.); type: cell-based; conditions: two separate tests
Protocol: The activity of compounds against Hepatitis B Virus (HBV) was assessed as described in Jansen, R., et al., Antimicrobial Agents and Chemotherapy, Vol. 37, No. 3, pp. 441-447, 1993.

[1] = Inhibition of KB cell growth (crystal violet); type: cell-based; conditions: human, KB cells; KB cell growth, 48 hours, quadruplicate; read-out: Cytotoxicity growth (IC50)
Protocol: (§1) Two different assays were used for routine cytotoxicity testing. (i) Cytotoxicity produced in stationary HFF cells was determined by microscopic inspection of cells not affected by the virus used in plaque assays (see Turk, S. R.; Shipman, C., Jr.; Nassiri, M. R.; Genzingler, G.; Krawczyk, S. H.; Townsend, L. B.; Drach, J. C. Pyrrolo[2,3-]pyrimidine Nucleosides as Inhibitors of Human Cytomegalovirus, Antimicrob. Agents Chemother. 1987, 31, 544-550). (ii) The effect of compounds during two population doublings of KB cells was determined by crystal violet staining and spectrophotometric quantitation of dye eluted from stained cells as described earlier (see Prichard, M. N.; Prichard, L. E., Baguley, W. A.; Nassiri, M. R.; Shipman, C., Jr. Three-Dimensional Analysis of the Synergistic Cytotoxicity of Ganciclovir and Zidovudine. Antiviral Res. 1991, 35, 1060-1065). Briefly, 96-well cluster dishes were planted with KB cells at 3000-5000 cells per well. After overnight incubation at 37° C., test compound was added in quadruplicate at six to eight concentrations. Plates were incubated at 37° C. for 48 hours in a CO2 incubator, rinsed, fixed with 95% ethanol, and stained with 0.1% crystal violet. Acidified ethanol was added and plates read at 570 nm in a spectrophotometer designed to read 96-well ELISA assay plates.
(§2) Dose-response relationships were constructed by linearly regressing the percent inhibition of parameters derived in the preceding sections against log drug concentrations. Fifty-percent inhibitory concentrations (IC50's) or IC90's were calculated from the regression lines. Samples containing positive controls (acyclovir for HSV-1, ganciclovir for HCMV, and 2-acetylpyridine thiosemicarbazone for cytotoxicity) were used in all assays.

[2] = Visual cytotoxicity in stationary HFF cells; type: cell-based; conditions: human; HFF cells, scored at time of HCMV plaque enumeration; read-out: Cytotoxicity visual (IC50)
Protocol: as §1, §2

HSV-1 [3] = experiment: HSV-1 ELISA in BSC-1 cells; type: cell-based, herpes simplex virus 1; conditions: Human alphaherpesvirus 1, quadruplicate wells, read-out: HSV-1 ELISA 50% Inhibitory Concentration (IC50)
Protocol: An ELISA was employed (see Prichard, M. N.; Shipman, C., Jr. A Three Dimensional Model to Analyze Drug-Drug Interactions. Antiviral Res. 1990, 14, 181-206) to detect HSV-1. Ninety-six-well cluster dishes were planted with 10,000 BSC-1 cells per well in 200 μL per well of MEM(E) plus 10% calf serum. After overnight incubation at 37° C., selected drug concentrations in quadruplicate and HSV-1 at a concentration of 100 p.f.u./well were added. Following a 3-day incubation at 37° C., medium was removed, plates were blocked, rinsed, and horse radish peroxidase conjugated rabbit anti-HSV-1 antibody was added. Following removal of the antibody containing solution, plates were rinsed, and then developed by adding 150 μL per well of a solution of tetramethylbenzidine as substrate. The reaction was stopped with H2SO4 and absorbance was read at 450 and 570 nm. Drug effects were calculated as a percentage of the reduction in absorbance in the presence of each drug concentration compared to absorbance obtained with virus in the absence of drug.
as §2

HCMV [4] = experiment: HCMV plaque reduction assay (Towne strain) in HFF cells; type: cell-based, Human cytomegalovirus
Protocol: (§3) Stock HCMV was prepared by infecting HFF cells at a multiplicity of infection (m.o.i.) of <0.01 plaque-forming units (p.f.u.) per cell as detailed previously (see Turk, S. R.; Shipman, C., Jr.; Nassiri, M. R.; Genzingler, G.; Krawczyk, S. H.; Townsend, L. B.; Drach, J. C. Pyrrolo[2,3-d]pyrimidine Nucleosides as Inhibitors of Human Cytomegalovirus, Antimicrob. Agents Chemother. 1987, 31, 544-550). High titer HSV-1 stocks were prepared by infecting KB cells (ATCC) at an m.o.i. of <0.1 also as detailed previously (see Turk, S. R.; Shipman, C., Jr.; Nassiri, M. R.; Genzingler, G.; Krawczyk, S. H.; Townsend, L. B.; Drach, J. C. Pyrrolo[2,3-d]pyrimidine Nucleosides as Inhibitors of Human Cytomegalovirus, Antimicrob. Agents Chemother. 1987, 31, 544-550). Virus titers were determined using monolayer cultures of HFF cells for HCMV and monolayer cultures of BSC-1 cells for HSV-1 as described earlier (see Prichard, M. N.; Turk, S. R.; Coleman, L. A.; Engelhardt, S. L.; Shipman, C., Jr.; Drach, J. C. A Microtiter Virus Yield Reduction Assay for the Evaluation of Antiviral Compounds Against Human Cytomegalovirus and Herpes Simplex Virus. J. Virol. Methods 1990, 28, 101-106). Briefly, HFF or BSC-1 cells were planted as described above in 96-well cluster dishes and incubated overnight at 37° C. The next day cultures were inoculated with HCMV or HSV-1 and serially diluted 1:3 across the remaining eleven columns of the 96-well plate. After virus adsorption the inoculum was replaced with fresh medium and cultures were incubated for seven days for HCMV, two or three days for HSV-1. Plaques were enumerated under 20-fold magnification in wells having the dilution which gave 5 to 20 plaques per well. Virus titers were calculated according to the following formula: Titer (p.f.u./mL)=number of plaques×5×3^n; where n represents the nth dilution of the virus used to infect the well in which plaques were enumerated.
(§4) HFF cells in 24-well cluster dishes were infected with approximately 100 p.f.u. of HCMV per cm^2 cell sheet using the procedures detailed above. Following virus adsorption, compounds dissolved in growth medium were added to duplicate wells in four to eight selected concentrations. After incubation at 37° C. for 7 to 10 days, cell sheets were fixed, stained with crystal violet and microscopic plaques enumerated as described above.
as §2

HCMV [5] = experiment: HCMV yield reduction assay (Towne strain) in HFF cells; type: cell-based, Human cytomegalovirus
Protocol: as §3
HFF cells were planted as described above in 96-well cluster dishes, incubated overnight, medium removed and the cultures were inoculated with HCMV at a m.o.i. of 0.5 to 1 p.f.u. per cell as reported elsewhere (see Prichard, M. N.; Turk, S. R.; Coleman, L. A.; Engelhardt, S. L.; Shipman, C., Jr.; Drach, J. C. A Microtiter Virus Yield Reduction Assay for the Evaluation of Antiviral Compounds Against Human Cytomegalovirus and Herpes Simplex Virus. J. Virol. Methods 1990, 28, 101-106). After virus adsorption, inoculum was replaced with 0.2 mL of fresh medium containing test compounds. The first row of 12 wells was left undisturbed and served as virus controls. Each well in the second row received an additional 0.1 mL of medium with test compound at three times the desired final concentration. The contents of the 12 wells were mixed by repeated pipetting and then serially diluted 1:3 along the remaining wells. In this manner, six compounds could be tested in duplicate on a single plate with concentrations from […]. Plates were incubated at 37° C. for seven days, subjected to one cycle of freezing and thawing; aliquots from each of the eight wells of a given column were transferred to the first column of a fresh 96-well monolayer culture of HFF cells. Contents were mixed and serially diluted 1:3 across the remaining eleven columns of the secondary plate. Each column of the original primary plate was diluted across a separate plate in this manner. Cultures were incubated, plaques were enumerated, and titers calculated as described above.
as §2

HCMV Strain AD169 = experiment: HCMV plaque reduction assay, strain AD169; type: cell-based, Human cytomegalovirus; conditions: Human betaherpesvirus 5, Table 3, read-out: HCMV Strain AD169 plaque 50% Inhibitory Concentration (IC50)
Protocol: as §4, §2

HCMV [6] = conditions: background, literature report; cited from earlier work
HSV-1 [7] = experiment: HSV-1 plaque assay (used for DHPG); type: cell-based, herpes simplex virus 1; conditions: Human alphaherpesvirus 1; plaque assay used for DHPG instead of ELISA (footnote b); read-out: HSV-1 plaque assay 50% Inhibitory Concentration (IC50)
Protocol: as §3, with “Briefly, HFF or BSC-1 cells were planted as described above in 96-well cluster dishes and incubated overnight at 37° C. The next day cultures were inoculated with HCMV or HSV-1 and serially diluted 1:3 across the remaining eleven columns of the 96-well plate. After virus adsorption the inoculum was replaced with fresh medium and cultures were incubated for seven days for HCMV, two or three days for HSV-1. Plaques were enumerated under 20-fold magnification in wells having the dilution which gave 5 to 20 plaques per well.” left out

[8] = Human betaherpesvirus 5, HFF, Table 3, same data as Table 2, read-out: HCMV Strain Towne plaque 50% Inhibitory Concentration (IC50)
[9] = Human betaherpesvirus 5, Table 2, HFF cells, duplicate, read-out: HCMV plaque 50% Inhibitory Concentration (IC50)
[10] = Human betaherpesvirus 5, HFF, Table 3, same data as Table 2, read-out: HCMV Strain Towne yield 90% Inhibitory Concentration (IC90)
[11] = Human betaherpesvirus 5, Table 2, HFF cells, duplicate, read-out: HCMV yield 90% Inhibitory Concentration (IC90)

SMILES | melting point [°C] | IC50 (Hepatitis B Virus (HBV); Hepatitis B virus) [nM] | IC50 (Hepatitis B Virus (HBV)) [nM] | IC50 at 48 h [1] [nM] | IC50 [2] [nM] | IC50 (HSV-1 [3]) [nM] | IC50 (HCMV [4]; [8]) [nM] | IC50 (HCMV [4]; [9]) [nM] | IC90 (HCMV [5]; [10]) [nM] | IC90 (HCMV [5]; [11]) [nM] | IC50 (HCMV Strain AD169) [nM] | inhibition of HCMV (HCMV [6]) | IC50 (HSV-1 [7]) [nM]
OC[C@@H]1O[C@@H](n2c(Br)nc3cc(Cl)c(Cl)cc32)[C@H](O)[C@@H]1O [Compound 5a, 2-Bromo-5,6dichloro-1-(α-L-lyxofuranosyl)benzimidazole] | 178 to 179 | 8800 | 16000 | > 100000 | > 100000 | > 100000 | 2800 | 2800 | 800 | 800 | 800 | – | –
OC[C@H]1O[C@@H](n2c(Br)nc3cc(Cl)c(Cl)cc32)[C@H](O)[C@@H]1O [BDCRB, 2-bromo-5,6-dichloro-1-(β-D-ribofuranosyl)benzimidazole] | – | – | – | – | – | – | – | – | – | – | – | significant inhibitors of HCMV | –
Nc1nc(O)c2ncn(COC(CO)CO)c2n1 [ganciclovir (DHPG), ganciclovir, reference compound] | – | – | – | > 100000 | > 100000 | – | – | 7400 ± 6500 | – | 1600 ± 1200 | – | – | 3500 ± 2100
OC[C@H]1O[C@@H](n2c(Cl)nc3cc(Cl)c(Cl)cc32)[C@H](O)[C@@H]1O [TCRB, 2,5,6-trichloro-1-(β-D-ribofuranosyl)benzimidazole, reference compound] | – | – | – | – | – | – | 2900 | – | 1400 | – | 1800 | significant inhibitors of HCMV | –
